Laboratory results as given in PubChem BioAssay AID588376 (Sanford-Burnham Center for Chemical Genomics, 2011).
Active and inactive are the calls of the source. How the calls were made is not given here.

Target: Bcl-2-related protein A1 (Mus musculus) (UniProt Q07440)
Test: Bfl-1 counter-screen inhibitors, SAR follow-up, counter-screen for UBC13 polyubiquitination inhibitor project, biochemical, mouse Bfl-1, set 2 (AID 588376)
Conditions: Bfl-1 biochemical counterscreen, dose response

Sequence of Bcl-2-related protein A1 (Mus musculus) (Q07440 whole entry, looked up): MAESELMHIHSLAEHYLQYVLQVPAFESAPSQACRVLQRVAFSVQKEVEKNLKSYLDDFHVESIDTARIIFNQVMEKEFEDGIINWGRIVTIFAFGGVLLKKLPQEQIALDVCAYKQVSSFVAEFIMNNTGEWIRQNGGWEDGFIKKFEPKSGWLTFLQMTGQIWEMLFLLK

Row | IC50 | SMILES
1 | > 100 µM (inactive) | O=C(C1CCN(c2ncnc3c2nc2n3CCCCC2)CC1)N1CCN(c2ncccn2)CC1
2 | > 100 µM (inactive) | O=C(CN1CCC(n2cnc3cc(F)ccc32)CC1)Nc1ccccc1Br
3 | > 100 µM (inactive) | O=C(C1CCN(c2ncnc3c2nc2n3CCCCC2)CC1)N1CCN(c2ccc(F)cc2)CC1
4 | > 100 µM (inactive) | Cc1ccc(C)c(N2CCN(CCCNC(=O)C3CCCN(c4ncnc5c4nc4n5CCCCC4)C3)CC2)c1 (configuration not stated)
5 | > 100 µM (inactive) | O=C(NCCCN1CCN(c2ccc(F)cc2)CC1)C1CCCN(c2ncnc3c2nc2n3CCCCC2)C1 (configuration not stated)
6 | > 100 µM (inactive) | COc1ccc(OC)c(NC(=O)CN2CCC(n3cnc4cc(F)ccc43)CC2)c1
7 | > 100 µM (inactive) | O=C(C1CCN(c2ncnc3c2nc2n3CCCCC2)CC1)N1CCN(Cc2ccccc2)CC1
8 | > 100 µM (inactive) | Cc1cccc(N2CCN(CCCNC(=O)C3CCCN(c4ncnc5c4nc4n5CCCCC4)C3)CC2C)c1 (configuration not stated)
9 | > 100 µM (inactive) | O=C(CN1CCC(n2c(C(F)(F)F)nc3cc(F)ccc32)CC1)Nc1ccc2c(c1)OCO2
10 | > 100 µM (inactive) | COc1ccccc1N1CCN(CCCNC(=O)C2CCCN(c3ncnc4c3nc3n4CCCCC3)C2)CC1 (configuration not stated)
11 | > 100 µM (inactive) | O=C(C1CCN(c2ncnc3c2nc2n3CCCCC2)CC1)N1CCN(c2ccccn2)CC1
12 | > 100 µM (inactive) | Cc1nc2ccccc2n1C1CCN(CC(=O)Nc2ccccc2Oc2ccccc2)CC1
13 | > 100 µM (inactive) | CCOc1ccccc1NC(=O)CN1CCC(n2cnc3cc(F)ccc32)CC1
14 | > 100 µM (inactive) | COc1ccc(OC)c(NC(=O)CN2CCC(n3c(C)nc4cc(F)ccc43)CC2)c1
15 | > 100 µM (inactive) | CC1(C)Cc2c(sc(NC(=O)C(=O)N3CCCC3)c2C(N)=O)CO1
16 | > 100 µM (inactive) | Cc1nc2cc(F)ccc2n1C1CCN(CC(=O)Nc2ccccc2)CC1
17 | > 100 µM (inactive) | CC1(C)Cc2c(sc(NC(=O)C(=O)NCC3CCCO3)c2C(=O)O)CO1 (configuration not stated)
18 | > 100 µM (inactive) | O=C(NCCCN1CCN(c2ccccc2)CC1)C1CCCN(c2ncnc3c2nc2n3CCCCC2)C1 (configuration not stated)
19 | > 100 µM (inactive) | O=C(CN1CCC(n2cnc3cc(F)ccc32)CC1)Nc1cccc(C(F)(F)F)c1
20 | > 100 µM (inactive) | COc1ccc(NC(=O)CN2CCC(n3c(C)nc4cc(F)ccc43)CC2)c(OC)c1
21 | > 100 µM (inactive) | O=C(CN1CCC(n2cnc3cc(C(F)(F)F)ccc32)CC1)Nc1ccc2c(c1)OCCO2
22 | > 100 µM (inactive) | CC1(C)Cc2c(sc(NC(=O)C(=O)NCC3CCCO3)c2C(N)=O)CO1 (configuration not stated)
23 | > 100 µM (inactive) | COC(=O)c1c(NC(=O)C(=O)NCC2CCCO2)sc2c1CC(C)(C)OC2 (configuration not stated)
24 | > 100 µM (inactive) | CC1(C)Cc2c(sc(NC(=O)C(=O)NCCN3CCOCC3)c2C(N)=O)CO1
25 | > 100 µM (inactive) | CCOc1ccc(NC(=O)CN2CCC(n3cnc4cc(F)ccc43)CC2)cc1
26 | > 100 µM (inactive) | Cc1cccc(NC(=O)CN2CCC(n3cnc4cc(F)ccc43)CC2)c1C
27 | > 100 µM (inactive) | O=C(c1ccco1)N1CCN(C(=O)C2CCN(c3ncnc4c3nc3n4CCCCC3)CC2)CC1
